Reference: patent publication US10745401B2, “Condensed lactam derivative” (Sumitomo Dainippon Pharma Co., Ltd., priority 2018, dated 2020)
pEC50, pIC50, pKi: −log10 of the molar value.

Key:
human 5-HT1A receptor [1] = target: T1, human 5-HT1A receptor (Homo sapiens (Human), UniProt P08908); experiment: Test 1: binding activity for human 5-HT1A receptor ([3H]8-OH-DPAT, CHO cell membrane fraction)
Method: (§1) Test 1: Evaluation of Binding Activity for Human 5-HT1A Receptor, Human 5-HT2A Receptor, and Human D2 Receptor
(§2) Binding affinity of the present compound for human 5-HT1A receptor, human 5-HT2A receptor, and human D2 receptor was measured by the following procedures.
(§3) Each mixture was incubated at room temperature for 60 minutes. Then, the mixture was added quickly on a glassfiber filter plate (Multiscreen FB, Millipore, Inc.) coated with 0.3% aqueous polyethylenimine, and vacuum-filtered. Radioactivity remaining on the filter was measured with a liquid scintillation counter (PerkinElmer, Inc.). Binding inhibition rate was calculated from the following formula.
(§4) IC50 value was calculated by Hill analysis (Physiology, 1910, 40, 190-200). Ki of each compound was calculated from the following formula. Binding inhibition constant (Ki)=IC50/(1+S/Kd) wherein S is concentration of ligand; Kd is a binding dissociation constant of ligand to membrane, which is calculated from a saturated binding experiment conducted with the same cell membrane. A small Ki value means strong binding ability to a receptor.

human D2 receptor = human D2 receptor (Homo sapiens (Human), UniProt P14416); experiment: Test 1: binding activity for human D2 receptor ([3H]Spiperone, CHO cell membrane fraction); conditions: human D2 receptor, [3H]Spiperone
Method: as §1, §2, §3
as §4, with “Ki” for “IC50 value was calculated by Hill analysis (Physiology, 1910, 40, 190-200). Ki”

human 5-HT1A receptor [2] = target: T1, human 5-HT1A receptor; experiment: Test 2: agonist activity for human 5-HT1A receptor ([35S]GTPγS binding); type: biochemical; conditions: for pEC50: [35S]GTPγS binding, concentration at which half the activity of Emax was obtained; for Emax at 10 µM: agonist activity in the presence of 10 μM of compound, relative to 100 μmol/L 5-HT
Method: Test 2: Evaluation of Agonist Activity for Human 5-HT1A Receptor
CHO cell membrane fraction in which human 5-HT1A receptor was expressed as used in Test 1 was purchased. To a buffer containing guanosine diphosphate were added a test compound dissolved in DMSO, each receptor membrane sample diluted with buffer, and [^35S] Guanosine 5′-O-[gamma-thio]triphosphate (GTPγS). The mixture was incubated at room temperature for 60 minutes. Then, the mixture was added quickly on a glassfiber filter plate (Multiscreen FB, Millipore, Inc.), and vacuum-filtered. Radioactivity remaining on the […] was measured with a liquid scintillation counter. Agonist activity was calculated from the following formula.

[3] = Test 4: metabolic stability test in human hepatic microsome; type: in vitro ADME; conditions: 0.1 mg/mL microsome, 0.1 μmol/L compound, 37° C., 30 minutes
Method: Test 4: Metabolic Stability Test in Human Hepatic Microsome
The stability of the present compound in human hepatic microsome metabolism was evaluated as mentioned below. Human hepatic microsome was obtained from Xenontech. Human hepatic microsome, NADPH, and each test compound were mixed in 25 mmol/L phosphate buffer solution (pH 7.4) to reach the following concentrations as shown below, and the mixture was incubated at 37° C. for 30 minutes. • Human hepatic microsome: 0.1 mg/mL • NAPDH: 3.2 mmol/L • Test compound: 0.1 μmol/L
The residual ratio of the test compound in each sample after 30 minutes was measured by LC-MS, and the metabolic stability in human hepatic microsome was calculated from the following formula. Metabolic stability in human hepatic microsome (mL/min/mg protein)=−LN (residual ratio)/30/0.1

hERG channel = hERG channel (Homo sapiens (Human), UniProt Q12809); experiment: Test 6-1: inhibitory activity for hERG channel (auto patch clamp, Qpatch); type: cell-based; conditions: whole cell auto patch clamp, hERG-CHO cells; read-out: hERG inhibition IC50
Method: Test 6-1: Evaluation of Inhibitory Activity for hERG Channel
Inhibitory activity of the present compound for hERG channel was measured by whole cell patch clamp method with an auto patch clamp system using CHO cells in which hERG channel involved in human rapidly activating delayed rectifier potassium current (IKr) was forcibly expressed.
hERG-CHO cells purchased from ChanTest Cop. were cultured in a CO2 incubator at 37° C., and dissociated from a flask with trypsin shortly before the measurement of hERG current, to prepare a cell suspension.
Extracellular fluid: 2 mmol/L CaCl2, 1 mmol/L MgCl2, 10 mmol/L HEPES, 4 mmol/L KCl, 145 mmol/L NaCl, 10 mmol/L Glucose
Intracellular fluid: 5.4 mmol/L CaCl2, 1.8 mmol/L MgCl2, 10 mmol/L HEPES, 31 mmol/L KOH, 10 mmol/L EGTA, 120 mmol/L KCl, 4 mmol/L Na2-ATP
Test compound solution: Test compound was dissolved in DMSO to reach the concentration of 2 mmol/L or 20 mmol/L, in order to prepare a test compound solution. […] (Measurement of Current Value and Data Analysis)
The cell suspension, the extracellular fluid, the intracellular fluid, and the measurement plate were set in the auto patch clamp system, and hERG current was measured by whole cell patch clamp method. […] Each pulse interval was 15 seconds. The data analysis was carried out with Qpatch Assay Software (Biolin Scientific). The test was carried out by applying incrementally 4 concentrations of each test compound, and the average of the maximum peak tail currents which were obtained from the last 3 stimulations in each concentration was determined as the evaluated data. Based on the current inhibition rate for a pre-applied current at each concentration of each test compound, IC50 value was calculated by Hill equation with the software.

hERG channel, sequence (Q12809 whole entry): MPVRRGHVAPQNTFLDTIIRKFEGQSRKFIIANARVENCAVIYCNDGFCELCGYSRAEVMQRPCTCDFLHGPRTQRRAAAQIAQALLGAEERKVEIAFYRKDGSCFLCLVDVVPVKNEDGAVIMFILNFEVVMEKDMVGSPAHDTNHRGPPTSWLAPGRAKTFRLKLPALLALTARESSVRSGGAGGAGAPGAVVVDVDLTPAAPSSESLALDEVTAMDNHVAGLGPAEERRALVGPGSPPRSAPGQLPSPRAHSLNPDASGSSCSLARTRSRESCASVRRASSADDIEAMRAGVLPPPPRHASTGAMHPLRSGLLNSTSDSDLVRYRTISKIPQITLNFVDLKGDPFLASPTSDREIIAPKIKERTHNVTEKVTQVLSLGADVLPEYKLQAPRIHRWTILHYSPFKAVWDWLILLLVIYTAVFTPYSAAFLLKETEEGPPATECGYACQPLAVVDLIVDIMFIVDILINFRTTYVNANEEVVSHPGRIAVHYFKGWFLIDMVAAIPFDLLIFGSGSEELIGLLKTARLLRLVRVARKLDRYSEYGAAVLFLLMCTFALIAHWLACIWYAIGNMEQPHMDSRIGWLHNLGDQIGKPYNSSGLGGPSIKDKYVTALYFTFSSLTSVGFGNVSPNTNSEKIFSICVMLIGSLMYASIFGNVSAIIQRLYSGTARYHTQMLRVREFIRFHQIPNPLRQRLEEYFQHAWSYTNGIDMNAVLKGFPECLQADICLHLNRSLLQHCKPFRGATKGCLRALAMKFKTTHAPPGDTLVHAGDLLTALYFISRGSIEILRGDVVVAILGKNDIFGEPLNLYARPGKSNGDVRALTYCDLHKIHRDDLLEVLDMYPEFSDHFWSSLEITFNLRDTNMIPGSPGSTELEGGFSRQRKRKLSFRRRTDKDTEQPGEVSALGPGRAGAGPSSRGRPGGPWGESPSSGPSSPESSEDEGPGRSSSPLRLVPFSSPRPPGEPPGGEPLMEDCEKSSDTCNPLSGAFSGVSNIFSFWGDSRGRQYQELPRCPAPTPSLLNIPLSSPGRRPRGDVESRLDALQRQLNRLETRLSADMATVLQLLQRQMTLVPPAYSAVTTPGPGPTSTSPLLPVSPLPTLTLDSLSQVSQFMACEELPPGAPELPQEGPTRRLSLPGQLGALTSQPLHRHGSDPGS
human D2 receptor, sequence (P14416 whole entry): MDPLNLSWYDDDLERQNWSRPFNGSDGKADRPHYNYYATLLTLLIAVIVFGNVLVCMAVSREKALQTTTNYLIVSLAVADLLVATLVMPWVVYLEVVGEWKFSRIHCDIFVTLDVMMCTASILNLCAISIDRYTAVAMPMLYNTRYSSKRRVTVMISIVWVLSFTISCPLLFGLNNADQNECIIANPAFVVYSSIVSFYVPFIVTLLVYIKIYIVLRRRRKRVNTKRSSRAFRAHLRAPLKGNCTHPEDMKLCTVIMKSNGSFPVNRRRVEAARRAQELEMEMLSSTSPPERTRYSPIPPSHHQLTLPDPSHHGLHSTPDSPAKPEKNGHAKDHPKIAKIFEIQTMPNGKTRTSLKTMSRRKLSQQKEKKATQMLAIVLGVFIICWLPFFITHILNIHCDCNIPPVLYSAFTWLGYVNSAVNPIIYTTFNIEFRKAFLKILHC
T1 sequence (P08908 whole entry): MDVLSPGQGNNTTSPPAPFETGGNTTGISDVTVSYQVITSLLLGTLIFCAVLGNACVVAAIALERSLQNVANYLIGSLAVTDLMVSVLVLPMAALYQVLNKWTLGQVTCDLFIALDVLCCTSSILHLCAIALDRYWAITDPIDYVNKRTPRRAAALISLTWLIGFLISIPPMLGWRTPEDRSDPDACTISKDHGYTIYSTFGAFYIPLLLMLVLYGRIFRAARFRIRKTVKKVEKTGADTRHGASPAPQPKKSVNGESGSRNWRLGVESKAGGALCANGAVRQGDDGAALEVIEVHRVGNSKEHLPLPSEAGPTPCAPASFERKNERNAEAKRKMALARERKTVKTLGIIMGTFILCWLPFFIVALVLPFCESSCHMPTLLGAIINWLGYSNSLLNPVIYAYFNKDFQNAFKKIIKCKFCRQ

Row | SMILES | pKi (human 5-HT1A receptor [1]) | pKi (human D2 receptor) | pEC50 (human 5-HT1A receptor [2]) | Emax at 10 µM (human 5-HT1A receptor [2]) | Metabolic stability in human hepatic microsome [3] | pIC50 (hERG channel)
1 | Cn1nc2c(c1Br)C(=O)N(CCN1CCN(c3nsc4ccccc34)CC1)CC2 [Example 73] | 9.01 | 6.63 |  |  |  | 
2 | O=C1c2[nH]cnc2CCCN1CCN1CCN(c2nsc3ccccc23)CC1 [Example 100, 5-{2-[4-(1,2-Benzoisothiazol-3-yl)piperazin-1-yl]ethyl}-5,6,7,8-tetrahydroimidazo[4,5-c]azepin-4(3H)-one] | 8.20 | 5.16 | 7.06 | 58% |  | 
3 | CC(CN1CCC(c2noc3cc(F)ccc23)CC1)N1CCc2cccnc2C1=O (stereo not shown) [Example 122] | 7.62 | 6.27 | 6.92 | 23% | <0.05 mL/min/mg protein | 
4 | Cc1ccc2c(n1)C(=O)N(CCN1CCC(c3noc4ccccc34)CC1)CC2 [Example 187] |  |  |  |  | <0.05 mL/min/mg protein | 
5 | O=c1c2cnc(C(F)(F)F)cc2ccn1CCN1CCN(c2nsc3ccccc23)CC1 [Example 172] | 8.48 | 6.42 | 8.09 | 72% |  | 
6 | CC(C)n1ncc2c1CCN(CCN1CCC(c3noc4ccccc34)CC1)C2=O [Example 159] | 6.59 | 6.43 | 6.07 | 18% | <0.05 mL/min/mg protein | 
7 | O=C1c2cccnc2CCN1CCN1CCC(c2noc3ccccc23)CC1 [Example 128] | 7.08 | 6.20 | 7.44 | 33% | <0.05 mL/min/mg protein | 
8 | Cc1ccc2c(C3CCN(CCN4CCc5cccnc5C4=O)CC3)noc2c1 [Example 118] | 7.14 | 6.56 | 6.26 | 5% |  | 
9 | Cn1nc2c(c1Br)C(=O)N(CCN1CCC(c3noc4ccccc34)CC1)CC2 [Example 74] | 8.46 | 6.68 | 8.35 | 51% |  | 
10 | O=c1c2cnc(C3CC3)nc2ccn1CCN1CCN(c2nsc3ccccc23)CC1 [Example 182] | 7.96 | 5.85 | 8.11 | 40% | 0.726 mL/min/mg protein | 
11 | CC1(C)CN(CCN2CCC(c3noc4cc(F)ccc34)CC2)C(=O)c2ncccc21 [Example 119] | 8.41 | 6.98 | 7.19 | 35% |  | 
12 | Cc1ccc2c(n1)C(=O)N(CCN1CCC(c3noc4ccccc34)CC1)CC2 [Example 186] |  |  |  |  | 0.095 mL/min/mg protein | 
13 | Cn1cc2c(n1)CCN(CCN1CCC(c3noc4ccccc34)CC1)C2=O [Example 17] |  | 6.16 |  | 52% | <0.01 mL/min/mg protein | 6.00
14 | O=C1c2oc(C3CC3)nc2CCN1CCN1CCC(c2noc3ccccc23)CC1 [Example 68] |  | 6.07 |  | 38% | 0.056 mL/min/mg protein | > 6.57
15 | CC(C)n1ncc2c1CCN(CCN1CCN(c3nsc4ccccc34)CC1)C2=O [Example 158] | 6.66 | 6.49 | 6.04 | 12% | 0.113 mL/min/mg protein | 
16 | Cc1ncc2c(=O)n(CCN3CCC(c4noc5ccccc45)CC3)ccc2n1 [Example 194, 6-{2-[4-(1,2-Benzoisoxazol-3-yl)piperidin-1-yl]ethyl}-2-methylpyrido[4,3-d]pyrimidin-5(6H)-one] |  |  |  |  | <0.05 mL/min/mg protein | 5.31
17 | O=C1c2cn[nH]c2CCN1CCN1CCN(c2nsc3ccccc23)CC1 [Example 169] | 7.35 | 5.72 | 7.20 | 44% |  | 
18 | Cc1cc2c(cn1)C(=O)N(CCN1CCN(c3noc4ccccc34)CC1)CC2(C)C [Example 86] | 8.00 | 5.92 | 7.80 | 51% |  | 
19 | CCc1nc2c(o1)C(=O)N(CCN1CCN(c3nsc4ccccc34)CC1)CC2 [Example 71] | 8.58 | 6.52 | 8.13 | 67% |  | 
20 | Cn1nc(Br)c2c1CCN(CCN1CCC(c3noc4ccccc34)CC1)C2=O [Example 70] | 7.85 | 6.06 | 7.10 | 50% |  | 
21 | O=C1c2nc(Cl)ccc2CCN1CCN1CCN(c2noc3ccccc23)CC1 [Example 144] |  | < 5.00 |  | 53% | <0.05 mL/min/mg protein | 
22 | O=C1c2cccnc2CCN1CCN1CCN(c2noc3ccccc23)CC1 [Example 153, 6-{2-[4-(1,2-Benzoisoxazol-3-yl)piperazin-1-yl]ethyl}-7,8-dihydro-1,6-naphthyridin-5(6H)-one] |  |  |  | 16% | <0.05 mL/min/mg protein | 5.15
23 | Cn1ccc2c1CCCN(CCN1CCN(c3noc4ccccc34)CC1)C2=O [Example 109, 5-{2-[4-(1,2-Benzoisoxazol-3-yl)piperazin-1-yl]ethyl}-1-methyl-5,6,7,8-tetrahydropyrrolo[3,2-c]azepin-4 (H)-one] |  | 6.22 |  | 60% | <0.01 mL/min/mg protein | 4.95
24 | O=c1c2ncccc2ccn1CCN1CCN(c2nsc3ccccc23)CC1 [Example 8] |  |  |  | 50% | 0.064 mL/min/mg protein | 5.70
25 | O=C1c2cnn(C3CC3)c2CCN1CCN1CCC(c2noc3ccccc23)CC1 [Example 161] | 6.69 | 6.67 | 5.21 | 17% | <0.05 mL/min/mg protein | 
26 | Cc1ncc2c(=O)n(CCN3CCN(c4nsc5ccccc45)CC3)ccc2n1 [Example 95] | 8.10 | 5.59 | 7.11 | 62% | 0.143 mL/min/mg protein | 
27 | Cn1cc2c(n1)C(=O)N(CCN1CCC(c3noc4ccccc34)CC1)CCC2 [Example 48] |  | 6.24 |  | 37% | <0.01 mL/min/mg protein | 5.92
28 | O=c1c2cnc(C(F)(F)F)cc2ccn1CCN1CCC(c2noc3ccccc23)CC1 [Example 84] |  | 6.02 |  | 59% |  | 
29 | O=C1c2ncccc2CCC1CCN1CCN(c2noc3cc(F)ccc23)CC1 (stereo not shown) [Example 143] | 7.58 | 6.40 | 5.98 | 31% |  | 6.10
